According to US20250346563A1, “HISTONE DEACETYLASE 6 INHIBITORS AND METHOD FOR TREATING NEUROPATHIC PAIN” (Taipei Medical University, priority 2019, published 2025):

Legend:
[1] = test system: rat Taxol-induced neuropathic pain model; assay: Thermal hyperalgesia in rat Taxol-induced neuropathic pain model; conditions: for thermal hyperalgesia (heat pain threshold) vs vehicle: p<0.05
Method: Gabapentin (100 mg/kg), was administrated via IP injection on Days 14, 21, and 27 (total three doses) by using the same cohort of animals in vehicle control group. Thermal hyperalgesia was assessed prior to Taxol challenge (Day 0; Pre-Taxol) and compound administration (Day 13; Pre-dose) and at 1.5 hours after (second) compound administration on Days 14, 17, 21, 24, and 27 (Post-dose). All values represented mean±SEM in individual groups. One-way ANOVA followed by Dunnett's test was applied for comparison between vehicle control and test article groups. p<0.05 is considered significant.
Animal. Male Sprague-Dawley (SD) rats weighing 220-260 g (at arrival) were provided by BioLasco Taiwan (under Charles River Laboratories Technology Licensee).
Chemotherapy induced neuropathy. Male SD rats weighing 240±20 grams was employed. Taxol (2 mg/kg) was injected IP on Days 1, 3, 5 and 7 with a total cumulative dose of 8 mg/kg (qod×4). During the course of the study, the animals were housed socially under constant temperature, humidity and a 12-hour light-dark cycle.
The reference compound, gabapentin (100 mg/kg, IP), was administrated on Days 14, 21, and 27 (total three doses) by using the same cohort of animals in vehicle control group.
The animals were tested prior to study inclusion for thermal hyperalgesia on Day 13. Thermal hyperalgesia was measured at 1.5 hour after dosing of vehicle or test article on Days 14, 17, 21, 24 and 27 by using the IITC Plantar Test Apparatus (IITC Model-336G; IITC Inc., USA). […] A light beam under the floor was aimed at the plantar surface of the left hind paw. The time was measured automatically when the paw is withdrawn away from the thermal stimulus. A cut-off latency of 23 sec was imposed. The latency to withdrawal was obtained for each rat and defined as the heat pain threshold.
All values represented mean±SEM in individual groups. One-way ANOVA followed by Dunnett's test was applied for comparison between vehicle control and test article groups. p<0.05 is considered significant.

scopolamine-treated rats [2] = assay: Elevated plus maze test, scopolamine-treated rats; format: in vivo; conditions: by gavage twice daily for seven days; scopolamine 1.5 mg/kg ip
Method: (§1) Compound 12, Compound 28, suberanilohydroxamic acid (50 mg/kg) or vehicle was given to rats by gavage twice daily for seven days prior to behavioral experiments. On the day conducting a behavior assessment, rats in all groups except the control group were administered scopolamine (1.5 mg/kg) by intraperitoneal injection for 30 minutes before the assessment, then a water maze test or an elevated plus maze test was performed.

scopolamine-treated rats [3] = assay: Water maze test, scopolamine-treated rats; format: in vivo; conditions: by gavage twice daily for seven days; scopolamine 1.5 mg/kg ip
Method: as §1

IL-6 expression = assay: LPS-induced IL-6 expression in RAW 264.7 cells (ELISA); format: cell-based, mouse; conditions: 10 μM, LPS 24 hr
Method: FIG. 1. Effects of Compound 28 on LPS-induced IL-6 protein expression. The cells were induced with 1 µg/mL LPS and various concentrations of Compound 28 for 24 hr. The levels of IL-6 were determined by ELISA kit.
In this example, we tested that whether Compound 28 can attenuate LPS-induced inflammation.
Cells. The RAW 264.7 cell line derived from mouse macrophage were maintained in Dulbecco's modified Eagle's medium (DMEM; GIBCO, Carlsbad, CA, USA) supplemented with 10% heat-inactivated fetal bovine serum (FBS), 100 μg/mL streptomycin, and 100 IU/mL penicillin.
Measurement of IL-6 expression. RAW cells were cultured onto 6 wells plate. After reaching 80% confluence, cells were pretreated with Compound 28 in 1% FBS medium for 30 min and then incubated with LPS for 24 hr. The levels of IL-6 were determined by IL-6 ELISA kit (BD Bioscience, San Jose, CA, USA). Briefly, 50 μL conditioned medium and 50 μL Assay Diluent were added to each well for 2 hours at room temperature. After washed five times, 100 μL Working Detector was added and incubated for 1 hour. After repetitive washing, 100 μL TMB-Substrate Solution was added for 30 minutes. Finally, 50 μL Stop Solution was added and the optical density was determined using microplate reader set at 450 nm.

[4] = test system: multiple myeloma cells (RPMI8226, U266, NCI-H929); assay: Apoptosis in multiple myeloma cells, combined with bortezomib (FACScan, propidium iodide); format: cell-based, human; conditions: RPMI8226, U266, and NCI-H929, 24 hours
Method: A study was conducted to evaluate the effect of a compound of Formula (I) combined with bortezomib in inducing apoptosis in multiple myeloma cells.
To detect cell cycle progression, cells were incubated with or without the indicated agent for 24 hours, washed twice with ice-cold PBS, collected by centrifugation, and fixed in 70% (v/v) ethanol for 2 hours at −20° C. They were subsequently incubated for 30 minutes at room temperature with 0.2 mL of deoxyribonucleic acid (DNA) extraction buffer (0.2 M Na2HPO4 and 0.1 M citric acid buffer, pH 7.8), re-suspended in 1 mL of propidium iodide staining buffer (0.1% Triton X-100, 100 μg/mL of RNase A, and 80 μg/mL of propidium iodide in PBS), incubated at 37° C. for 30 minutes in darkness, sorted by FACScan, and analyzed using CellQuest software (BD Biosciences).
The study was performed according to the protocol reported in Hsieh et al., Cell Death and Disease, 2014 April; 5:e1166.

Structure (SMILES): O=C(CCCCCCNC(=O)c1cnc(N(c2ccccc2)c2ccccc2Cl)nc1)NO [ACY241, Citarinostat, reference compound]
- thermal hyperalgesia (heat pain threshold) vs vehicle ([1]; 50 mg/kg PO qd x14, Days 14, 17, 21, and 24): successfully relieved the thermal hyperalgesia

Structure (SMILES): O=C(NO)c1ccc(CNc2cccc3ncccc23)cc1 [Compound 12, N-hydroxy-4-((quinolin-5-ylamino)methyl)benzamide]
- transfer latency time (elevated plus maze test) (scopolamine-treated rats [2]): significantly rescued scopolamine-mediated increase of transfer latency time
- time spent in the correct quadrant (water maze test) (scopolamine-treated rats [3]): markedly reverse this effect

Structure (SMILES): NCC1(CC(=O)O)CCCCC1 [Gabapentin, reference compound]
- thermal hyperalgesia (heat pain threshold) ([1]; 100 mg/kg IP on Days 14, 21, and 27, during the experimental period): attenuated the thermal pain

Structure (SMILES): O=C(NO)c1ccc(CNc2cccc3cccnc23)cc1 [Compound 28, N-hydroxy-4-((quinolin-8-ylamino)methyl)benzamide]
- transfer latency time (elevated plus maze test) (scopolamine-treated rats [2]): significantly rescued scopolamine-mediated increase of transfer latency time
- time spent in the correct quadrant (water maze test) (scopolamine-treated rats [3]): markedly reverse this effect
- LPS-induced IL-6 expression (IL-6 expression): significantly reduce LPS-induced IL-6 expression
- thermal hyperalgesia (heat pain threshold) vs vehicle ([1]; 50 mg/kg PO bid x14, Days 21 and 24): markedly reduced the thermal pain
- thermal hyperalgesia (heat pain threshold) vs vehicle ([1]; 50 mg/kg PO qd x14, Days 14 and 17): significant analgesic effects
- thermal hyperalgesia (heat pain threshold) vs vehicle ([1]; 50 mg/kg PO qd x14, Days 21 and 24): markedly reduced the thermal pain
- apoptosis induction [4]: synergistically induced apoptosis
